In the kinase profiling compilation of Christmann-Franck et al. (2016):

Tests used:
Experiment in all cases: radiometric filter-binding kinase assay
[1] = system: AKT1 (human), P31749 [S473D]
AURKB (human) = AURKB (human) (UniProt Q96GD4)
CLK2 (human) = CLK2 (human) (UniProt P49760)
CSNK2A1 (human) = CSNK2A1 (human) (UniProt P68400)
CaMK1 (human) = CaMK1 (human) (UniProt Q14012)
DYRK2 (human) = DYRK2 (human) (UniProt Q92630)
ERBB4 (human) = ERBB4 (human) (UniProt Q15303)
IKBKE (human) = IKBKE (human) (UniProt Q14164)
IRAK4 (human) = IRAK4 (human) (UniProt Q9NWZ3)
MAP3K9 (human) = MAP3K9 (human) (UniProt P80192)
MAPK13 (human) = MAPK13 (human) (UniProt O15264)
MAPK14 (human) = MAPK14 (human) (UniProt Q16539)
MAPK8 (human) = MAPK8 (human) (UniProt P45983)
MAPKAPK3 (human) = MAPKAPK3 (human) (UniProt Q16644)
MARK2 (human) = MARK2 (human) (UniProt Q7KZI7)
MINK1 (human) = MINK1 (human) (UniProt Q8N4C8)
NTRK1 (human) = NTRK1 (human) (UniProt P04629)
PAK4 (human) = PAK4 (human) (UniProt O96013)
PAK7 (human) = PAK7 (human) (UniProt Q9P286)
PHKG1 (human) = PHKG1 (human) (UniProt Q16816)
PIM2 (human) = PIM2 (human) (UniProt Q9P1W9)
PIM3 (human) = PIM3 (human) (UniProt Q86V86)
PRKCG (human) = PRKCG (human) (UniProt P05129)
[2] = target: STK11 CAB39 STRADA (human) (UniProt Q9Y376+Q7RTN6+Q15831)
STK16 (human) = STK16 (human) (UniProt O75716)
STK3 (human) = STK3 (human) (UniProt Q13188)
TAOK1 (human) = TAOK1 (human) (UniProt Q7L7X3)
TEK (human) = TEK (human) (UniProt Q02763)
Sequence of TEK (human) (Q02763 whole entry, looked up): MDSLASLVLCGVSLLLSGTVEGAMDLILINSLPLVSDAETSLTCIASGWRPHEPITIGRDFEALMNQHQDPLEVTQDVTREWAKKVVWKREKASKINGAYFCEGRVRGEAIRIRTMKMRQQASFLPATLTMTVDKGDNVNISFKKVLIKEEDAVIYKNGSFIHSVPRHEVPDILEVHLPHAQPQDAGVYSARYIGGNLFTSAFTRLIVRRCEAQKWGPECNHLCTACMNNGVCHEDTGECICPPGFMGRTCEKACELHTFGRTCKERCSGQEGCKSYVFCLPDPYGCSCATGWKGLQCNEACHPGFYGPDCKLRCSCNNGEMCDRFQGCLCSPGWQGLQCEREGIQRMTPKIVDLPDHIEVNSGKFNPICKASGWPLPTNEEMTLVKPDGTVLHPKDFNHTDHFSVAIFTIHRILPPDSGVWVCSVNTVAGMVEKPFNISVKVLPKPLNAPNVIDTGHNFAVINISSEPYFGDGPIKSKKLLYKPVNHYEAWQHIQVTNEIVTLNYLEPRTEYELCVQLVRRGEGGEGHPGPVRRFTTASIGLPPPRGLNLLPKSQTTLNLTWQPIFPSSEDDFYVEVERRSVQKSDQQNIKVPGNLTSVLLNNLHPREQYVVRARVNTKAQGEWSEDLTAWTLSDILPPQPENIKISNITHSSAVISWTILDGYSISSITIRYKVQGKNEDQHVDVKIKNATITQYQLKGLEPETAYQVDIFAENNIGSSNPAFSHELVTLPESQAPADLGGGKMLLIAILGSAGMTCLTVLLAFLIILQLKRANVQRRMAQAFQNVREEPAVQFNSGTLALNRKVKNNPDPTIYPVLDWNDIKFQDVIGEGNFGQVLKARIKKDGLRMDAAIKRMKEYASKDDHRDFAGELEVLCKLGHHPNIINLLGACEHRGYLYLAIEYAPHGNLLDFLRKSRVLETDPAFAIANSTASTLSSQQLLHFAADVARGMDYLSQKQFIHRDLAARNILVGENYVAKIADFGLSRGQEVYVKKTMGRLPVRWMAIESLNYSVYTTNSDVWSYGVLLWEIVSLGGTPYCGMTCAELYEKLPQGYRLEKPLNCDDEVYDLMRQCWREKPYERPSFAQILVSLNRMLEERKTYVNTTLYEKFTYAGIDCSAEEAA

Sequence of DYRK2 (human) (Q92630 whole entry, looked up): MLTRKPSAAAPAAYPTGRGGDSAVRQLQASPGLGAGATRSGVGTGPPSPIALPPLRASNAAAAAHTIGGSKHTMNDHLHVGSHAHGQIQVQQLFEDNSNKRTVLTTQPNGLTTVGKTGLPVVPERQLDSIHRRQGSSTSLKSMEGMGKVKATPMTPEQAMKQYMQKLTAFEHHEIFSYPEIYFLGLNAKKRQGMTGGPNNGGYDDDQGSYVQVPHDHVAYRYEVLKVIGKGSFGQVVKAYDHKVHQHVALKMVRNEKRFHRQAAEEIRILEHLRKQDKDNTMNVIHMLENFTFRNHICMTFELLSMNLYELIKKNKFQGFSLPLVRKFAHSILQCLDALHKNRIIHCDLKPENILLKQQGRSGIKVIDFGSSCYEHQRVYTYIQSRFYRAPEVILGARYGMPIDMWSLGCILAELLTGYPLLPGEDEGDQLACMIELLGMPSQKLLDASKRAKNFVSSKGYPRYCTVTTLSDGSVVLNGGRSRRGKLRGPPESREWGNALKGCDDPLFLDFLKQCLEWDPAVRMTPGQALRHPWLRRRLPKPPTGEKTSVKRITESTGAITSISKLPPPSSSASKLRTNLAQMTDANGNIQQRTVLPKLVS
Sequence of CSNK2A1 (human) (P68400 whole entry, looked up): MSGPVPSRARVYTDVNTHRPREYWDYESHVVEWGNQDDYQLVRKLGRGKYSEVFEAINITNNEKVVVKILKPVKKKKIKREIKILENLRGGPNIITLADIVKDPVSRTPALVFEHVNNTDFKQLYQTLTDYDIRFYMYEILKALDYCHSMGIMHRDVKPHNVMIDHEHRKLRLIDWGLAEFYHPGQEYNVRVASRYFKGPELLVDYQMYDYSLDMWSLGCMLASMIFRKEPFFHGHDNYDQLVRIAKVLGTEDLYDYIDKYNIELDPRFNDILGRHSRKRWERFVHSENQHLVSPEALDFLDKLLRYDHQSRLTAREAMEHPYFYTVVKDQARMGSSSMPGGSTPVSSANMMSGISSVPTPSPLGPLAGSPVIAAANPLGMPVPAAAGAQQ
Sequence of AURKB (human) (Q96GD4 whole entry, looked up): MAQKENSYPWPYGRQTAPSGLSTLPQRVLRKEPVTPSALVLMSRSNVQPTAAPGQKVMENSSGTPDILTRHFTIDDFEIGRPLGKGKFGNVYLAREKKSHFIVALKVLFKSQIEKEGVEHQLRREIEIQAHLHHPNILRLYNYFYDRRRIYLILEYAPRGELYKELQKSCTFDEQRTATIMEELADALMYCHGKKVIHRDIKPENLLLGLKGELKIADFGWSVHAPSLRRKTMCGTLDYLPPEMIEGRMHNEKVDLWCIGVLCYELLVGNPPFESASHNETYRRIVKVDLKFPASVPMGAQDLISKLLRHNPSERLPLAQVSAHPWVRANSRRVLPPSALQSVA
Sequence of STK3 (human) (Q13188 whole entry, looked up): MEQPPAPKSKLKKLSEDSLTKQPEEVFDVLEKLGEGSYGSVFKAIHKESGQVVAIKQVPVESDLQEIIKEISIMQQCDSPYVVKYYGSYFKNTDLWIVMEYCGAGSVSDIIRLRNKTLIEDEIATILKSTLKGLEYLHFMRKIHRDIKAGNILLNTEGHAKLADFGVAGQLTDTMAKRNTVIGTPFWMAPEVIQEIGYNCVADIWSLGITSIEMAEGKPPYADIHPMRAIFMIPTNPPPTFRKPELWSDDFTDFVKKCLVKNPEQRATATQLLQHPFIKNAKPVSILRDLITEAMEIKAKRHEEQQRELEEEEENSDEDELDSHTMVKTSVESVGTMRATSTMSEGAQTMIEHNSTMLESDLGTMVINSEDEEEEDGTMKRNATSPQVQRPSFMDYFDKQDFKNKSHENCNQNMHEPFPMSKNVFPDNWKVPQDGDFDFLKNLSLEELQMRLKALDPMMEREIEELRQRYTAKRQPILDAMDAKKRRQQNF
Sequence of PAK4 (human) (O96013 whole entry, looked up): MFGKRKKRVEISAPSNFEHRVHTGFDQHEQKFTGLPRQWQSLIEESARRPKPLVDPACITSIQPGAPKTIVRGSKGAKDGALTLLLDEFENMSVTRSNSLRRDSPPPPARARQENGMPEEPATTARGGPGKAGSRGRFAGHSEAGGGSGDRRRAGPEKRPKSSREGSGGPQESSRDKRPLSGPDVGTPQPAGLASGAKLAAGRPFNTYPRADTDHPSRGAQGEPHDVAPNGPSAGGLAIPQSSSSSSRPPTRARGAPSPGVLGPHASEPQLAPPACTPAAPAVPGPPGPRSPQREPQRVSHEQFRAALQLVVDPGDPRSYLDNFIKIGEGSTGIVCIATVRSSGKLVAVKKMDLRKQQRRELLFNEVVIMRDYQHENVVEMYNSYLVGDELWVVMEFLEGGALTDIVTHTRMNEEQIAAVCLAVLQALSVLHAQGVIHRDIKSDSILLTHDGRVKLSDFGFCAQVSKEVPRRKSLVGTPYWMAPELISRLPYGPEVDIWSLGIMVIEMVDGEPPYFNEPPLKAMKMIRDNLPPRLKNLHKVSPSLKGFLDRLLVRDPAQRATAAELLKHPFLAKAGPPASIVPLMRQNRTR
Sequence of MAPK14 (human) (Q16539 whole entry, looked up): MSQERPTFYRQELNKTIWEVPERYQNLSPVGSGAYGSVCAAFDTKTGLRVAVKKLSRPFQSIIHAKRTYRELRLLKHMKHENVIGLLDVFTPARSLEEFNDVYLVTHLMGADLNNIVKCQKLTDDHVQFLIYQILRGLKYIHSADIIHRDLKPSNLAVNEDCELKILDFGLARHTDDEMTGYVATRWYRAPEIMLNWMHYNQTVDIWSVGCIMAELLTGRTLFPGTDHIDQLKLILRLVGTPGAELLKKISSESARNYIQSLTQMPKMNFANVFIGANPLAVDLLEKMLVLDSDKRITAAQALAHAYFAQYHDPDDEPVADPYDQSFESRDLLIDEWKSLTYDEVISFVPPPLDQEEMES
Sequence of PIM2 (human) (Q9P1W9 whole entry, looked up): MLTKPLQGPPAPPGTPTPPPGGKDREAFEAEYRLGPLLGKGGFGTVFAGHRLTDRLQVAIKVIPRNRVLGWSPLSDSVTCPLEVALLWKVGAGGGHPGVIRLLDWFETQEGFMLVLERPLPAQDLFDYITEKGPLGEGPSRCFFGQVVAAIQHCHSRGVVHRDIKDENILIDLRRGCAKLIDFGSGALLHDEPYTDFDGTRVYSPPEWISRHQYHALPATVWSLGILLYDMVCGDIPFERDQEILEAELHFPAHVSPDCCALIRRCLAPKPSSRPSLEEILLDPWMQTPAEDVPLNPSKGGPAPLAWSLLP
Sequence of CaMK1 (human) (Q14012 whole entry, looked up): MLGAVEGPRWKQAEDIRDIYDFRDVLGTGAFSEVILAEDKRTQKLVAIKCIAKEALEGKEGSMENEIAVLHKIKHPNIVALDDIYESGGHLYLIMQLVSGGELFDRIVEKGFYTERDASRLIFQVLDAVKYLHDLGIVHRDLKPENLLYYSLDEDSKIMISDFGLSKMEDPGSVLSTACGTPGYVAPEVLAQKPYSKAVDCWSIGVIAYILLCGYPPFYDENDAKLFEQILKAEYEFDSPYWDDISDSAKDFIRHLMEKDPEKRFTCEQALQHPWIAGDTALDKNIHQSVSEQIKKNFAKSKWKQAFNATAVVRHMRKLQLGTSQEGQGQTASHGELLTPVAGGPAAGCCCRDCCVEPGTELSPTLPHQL

CCN1CCN(Cc2ccc(NC(=O)c3ccc(C)c(Oc4ccnc5[nH]ccc45)c3)cc2C(F)(F)F)CC1
residual activity ([1]; compound 0.1 µM): 105% | residual activity ([1]; compound 1.0 µM): 100% | residual activity ([1]; compound 10.0 µM): 69% | residual activity (AURKB (human); compound 0.1 µM): 116% | residual activity (AURKB (human); compound 1.0 µM): 108% | residual activity (AURKB (human); compound 10.0 µM): 118% | residual activity (CLK2 (human); compound 0.1 µM): 115% | residual activity (CLK2 (human); compound 1.0 µM): 104% | residual activity (CLK2 (human); compound 10.0 µM): 75.8% | residual activity (CSNK2A1 (human); compound 0.1 µM): 90.2% | residual activity (CSNK2A1 (human); compound 1.0 µM): 94.1% | residual activity (CSNK2A1 (human); compound 10.0 µM): 98.5% | residual activity (CaMK1 (human); compound 0.1 µM): 68.7% | residual activity (CaMK1 (human); compound 1.0 µM): 17.2% | residual activity (CaMK1 (human); compound 10.0 µM): 3.79% | residual activity (DYRK2 (human); compound 0.1 µM): 102% | residual activity (DYRK2 (human); compound 1.0 µM): 101% | residual activity (DYRK2 (human); compound 10.0 µM): 94.5% | residual activity (ERBB4 (human); compound 0.1 µM): 105% | residual activity (ERBB4 (human); compound 1.0 µM): 76.8% | residual activity (ERBB4 (human); compound 10.0 µM): 36.9% | residual activity (IKBKE (human); compound 0.1 µM): 106% | residual activity (IKBKE (human); compound 1.0 µM): 96.6% | residual activity (IKBKE (human); compound 10.0 µM): 80.1% | residual activity (IRAK4 (human); compound 0.1 µM): 98.6% | residual activity (IRAK4 (human); compound 1.0 µM): 102% | residual activity (MAP3K9 (human); compound 0.1 µM): 106% | residual activity (MAP3K9 (human); compound 1.0 µM): 90% | residual activity (MAP3K9 (human); compound 10.0 µM): 39.6% | residual activity (MAPK13 (human); compound 0.1 µM): 98.7% | residual activity (MAPK13 (human); compound 1.0 µM): 33.7% | residual activity (MAPK13 (human); compound 10.0 µM): 7.2% | residual activity (MAPK14 (human); compound 0.1 µM): 41% | residual activity (MAPK14 (human); compound 1.0 µM): 3.48% | residual activity (MAPK14 (human); compound 10.0 µM): 2.61% | residual activity (MAPK8 (human); compound 0.1 µM): 93.8% | residual activity (MAPK8 (human); compound 1.0 µM): 61.6% | residual activity (MAPK8 (human); compound 10.0 µM): 14.4% | residual activity (MAPKAPK3 (human); compound 0.1 µM): 90.1% | residual activity (MAPKAPK3 (human); compound 1.0 µM): 82.3% | residual activity (MAPKAPK3 (human); compound 10.0 µM): 96.7% | residual activity (MARK2 (human); compound 0.1 µM): 92.7% | residual activity (MARK2 (human); compound 1.0 µM): 74.5% | residual activity (MARK2 (human); compound 10.0 µM): 85.5% | residual activity (MINK1 (human); compound 0.1 µM): 75.7% | residual activity (MINK1 (human); compound 1.0 µM): 11.4% | residual activity (MINK1 (human); compound 10.0 µM): 4.56% | residual activity (NTRK1 (human); compound 0.1 µM): 111% | residual activity (NTRK1 (human); compound 1.0 µM): 77.7% | residual activity (NTRK1 (human); compound 10.0 µM): 43.4% | residual activity (PAK4 (human); compound 0.1 µM): 109% | residual activity (PAK4 (human); compound 1.0 µM): 99.4% | residual activity (PAK4 (human); compound 10.0 µM): 77.8% | residual activity (PAK7 (human); compound 0.1 µM): 108% | residual activity (PAK7 (human); compound 1.0 µM): 104% | residual activity (PAK7 (human); compound 10.0 µM): 87.5% | residual activity (PHKG1 (human); compound 0.1 µM): 102% | residual activity (PHKG1 (human); compound 1.0 µM): 112% | residual activity (PHKG1 (human); compound 10.0 µM): 102% | residual activity (PIM2 (human); compound 0.1 µM): 106% | residual activity (PIM2 (human); compound 1.0 µM): 95% | residual activity (PIM2 (human); compound 10.0 µM): 102% | residual activity (PIM3 (human); compound 0.1 µM): 107% | residual activity (PIM3 (human); compound 1.0 µM): 108% | residual activity (PIM3 (human); compound 10.0 µM): 98.9% | residual activity (PRKCG (human); compound 0.1 µM): 108% | residual activity (PRKCG (human); compound 1.0 µM): 102% | residual activity (PRKCG (human); compound 10.0 µM): 106% | residual activity ([2]; compound 0.1 µM): 117% | residual activity ([2]; compound 1.0 µM): 107% | residual activity ([2]; compound 10.0 µM): 129% | residual activity (STK16 (human); compound 0.1 µM): 103% | residual activity (STK16 (human); compound 1.0 µM): 90.7% | residual activity (STK16 (human); compound 10.0 µM): 99.2% | residual activity (STK3 (human); compound 0.1 µM): 111% | residual activity (STK3 (human); compound 1.0 µM): 124% | residual activity (STK3 (human); compound 10.0 µM): 91.5% | residual activity (TAOK1 (human); compound 0.1 µM): 98.9% | residual activity (TAOK1 (human); compound 1.0 µM): 67.3% | residual activity (TAOK1 (human); compound 10.0 µM): 26.9% | residual activity (TEK (human); compound 0.1 µM): 95.2% | residual activity (TEK (human); compound 1.0 µM): 91.2% | residual activity (TEK (human); compound 10.0 µM): 60.4%
